In patent US5824665A, “Reduction of hair growth” (priority 1997, dated 1998):

Assays:
hair follicle hexokinase = experiment: Hexokinase activity in hair follicle extracts; format: biochemical, hamster; details: concentration of 1 mM
Description: Measurement of the Hexokinase Activity was Performed as Follows
The enzyme hexokinase was extracted from the hamster hair follicles in a buffer containing Tris-HCL (0.25M, pH 8.1), 1.5 mM EDTA and 5.0 mM MgCl2. The extract was prepared in a manner similar to as described above for phosphofructokinase. The following reagents were mixed together and the change in absorbance at 340 nm was monitored to determine enzyme activity--0.5 ml of the Tris buffer, 0.1 ml ATP (5 mM), 0.1 ml phospho(enol)pyruvate and NADH (0.75 mM and 0.2 mM respectively), 0.1 ml of the follicle extract.

flank organ hair growth = experiment: Golden Syrian hamster assay (flank organ hair mass after topical treatment); format: in vivo; details: thirteen applications
Text: Male intact Golden Syrian hamsters are considered acceptable models for human beard hair growth in that they display oval shaped flank organs, one on each side, each about 8 mm in major diameter, which grow thick black and coarse hair similar to human beard hair. These organs produce hair in response to androgens in the hamster. To evaluate the effectiveness of a composition including a hair growth reducing compound, the flank organs of each of a group of hamsters are depilated by applying a thioglycolate based chemical depilatory (Surgex); alternatively, hair were removed by shaving the flank organs prior to topical treatments. To one organ of each animal 10 μl of vehicle alone once a day is applied, while to the other organ of each animal an equal amount of vehicle containing a hair growth reducing compound is applied. After thirteen applications (one application per day for five days a week), the flank organs are shaved and the amount of recovered hair (hair mass) from each is weighed. Percent-reduction of hair growth is calculated by subtracting the hair mass (mg) value of the test compound treated side from the hair mass value of the vehicle treated side; the delta value obtained is then divided by the hair mass value of the vehicle treated side, and the resultant number is multiplied by 100.
The above-described assay will be referred to herein as the "Golden Syrian hamster" assay. Preferred compositions provide an inhibition in hair growth of at least about 20%, more preferably at least about 40%, and most preferably at least about 60% when tested in the Golden Syrian hamster assay.

[1] = tested on: hair follicle phosphofructokinase; experiment: Phosphofructokinase activity in hair follicle extracts; format: biochemical, hamster
Description: The activity of two target enzymes (phosphofructokinase and hexokinase) was determined in hair follicle extracts in the presence or absence of select enzyme inhibitors.
Measurement of Phosphofructokinase Activity in Hair Follicle Extracts
Hair follicles from hamster flank organs were excised and an enzyme extract was prepared in a buffered mixture containing 75 mM Tris-HCL, 3 mM MgCl2, and 15 mM (NH4)2 SO4, pH 7.5, using a sonication device. The follicle extracts were passed through a 10,000 molecular weight cut off filter by centrifugation at 12,000 x g. The unfiltered extract was transferred to another filter and a 100 ul aliquot of the magnesium buffer was added. The sample was centrifuged again under similar conditions. This procedure was repeated two additional times.
The washed extract was removed from the insert cup and assayed for phosphofructokinase activity according to the following procedure. The extract was mixed with a solution containing 2.0 ml of the magnesium buffer, 0.1 ml of fructose 6-phosphate (30 mM), 0.1 ml ATP (15 mM), 0.1 ml NADH (1.5 mM), 0.3 ml of mercatopethanol (0.1M), 0.3 ml an auxiliary enzyme mixture made up of aldose (10 units/ml), triosephosphate isomerase (8 units/ml), and α-glycerophosphate dehydrogenae (4 units/ml) in 25 mM Tris-HCI (pH 7.5). […] Change in absorbance at UV 340 nm was used to determine the enzyme activity.

[2] = 10% concentration in vehicle, topical 10 μl once a day, vehicle and pH per compound as in the Table
[3] = 10% concentration in vehicle, topical 10 μl once a day, vs vehicle treated side
[4] = 4.4% concentration, vehicle A pH 7.0, topical
[5] = 15.0% concentration, vehicle G pH 7.0, topical
[6] = 7.5% concentration, vehicle C pH 8.5, topical

Compound | Hair Mass (mg) ± SEM, Treated (flank organ hair growth; [2]) | % Inhibition (hair growth) (flank organ hair growth; [3]) [%] | other results
6-Amino-6-deoxy glucose | 0.77 ± .15 mg | 59 ± 6 | inhibition of the hair follicle hexokinase activity (hair follicle hexokinase): 46%
O=C(O)C1(O)CC1 [1-Hydroxy-1-cyclopropanecarboxylic acid] | 1.80 ± .20 mg | 22 ± 9 | 
O=CC[C@@H](O)[C@H](O)[C@H](O)CO [2-Deoxyglucose] | 0.96 ± .16 mg | 38 ± 7 | 
O=C(O)C(=O)CF [3-Fluoropyruvic acid] | 1.14 ± .09 mg | 40 ± 5 | 
Nc1ncnc2c1ncn2[C@@H]1O[C@H](COC(=O)c2ccc(S(=O)(=O)F)cc2)[C@@H](O)[C@H]1O [5'-p-Flurosuflonylbenzoyl adenosine] |  |  | % Inhibition (hair growth) (flank organ hair growth; [4]): 60 ± 3%; Hair Mass (mg) ± SEM, Treated (flank organ hair growth; [4]): 0.74 ± .05 mg
O=C[C@H](O)[C@@H](O)[C@H](O)[C@H](S)CO [5-Thio-D-glucose] | 1.32 ± .20 mg | 49 ± 6 | 
CCCCCCCCCCCCCCCCC(C(=O)O)C(O)(CC(=O)O)C(=O)O (centres unmarked) [Argaric acid] | 0.97 ± .14 mg | 52 ± 4 | inhibition of the hair follicle phosphofructokinase activity ([1]; concentration of 0.15 mM): 76%
O=C(O)C(=O)CBr [Bromopyruvic acid] | 1.10 ± .11 mg | 58 ± 6 | 
O=C(O)[C@H](O)COP(=O)(O)O [D(-)3-Phosphoglyceric acid] | 2.27 ± .22 mg | 21 ± 7 | 
O=C(O)c1cc(=O)c2ccccc2[nH]1 [Kynurenic acid] | 0.98 ± .09 mg | 64 ± 4 | 
N[C@@H]1C(O)O[C@H](CO)[C@@H](O)[C@@H]1O (some centres unmarked) [Mannosamine] | 0.71 ± .13 mg | 68 ± 6 | inhibition of the hair follicle hexokinase activity (hair follicle hexokinase): 100%
CC(=O)N[C@H]1[C@@H](O)[C@H](O)[C@@H](CO)O[C@H]1O [N-Acetyl-β-D-mannosamine] | 0.79 ± .15 mg | 65 ± 7 | inhibition of the hair follicle hexokinase activity (hair follicle hexokinase): 100%
Cc1ccc(S(=O)(=O)N[C@@H](CCCCN)C(=O)CCl)cc1 [N-α-(p-Tosyl)-L-lysine chloromethyl ketone] | 0.48 ± .11 mg | 81 ± 4 | inhibition of the hair follicle hexokinase activity (hair follicle hexokinase): 100%
O=C(O)C(=O)Cc1ccccc1 [Phenylpyruvic acid] | 0.92 ± .21 mg | 54 ± 10 | 
O=C(CCc1ccc(O)cc1)c1c(O)cc(O)cc1O [Phloretin] |  |  | % Inhibition (hair growth) (flank organ hair growth; [5]): 35 ± 7%; Hair Mass (mg) ± SEM, Treated (flank organ hair growth; [5]): 1.34 ± .11 mg
O=C(O)COP(=O)(O)O [Phosphogylcolic acid] | 0.57 ± .09 mg | 66 ± 5 | inhibition of the hair follicle phosphofructokinase activity ([1]; concentration of 0.9 mM): 45%
O=C(O)c1ccc2ccccc2n1 [Quinaldic Acid] | 0.62 ± .08 mg | 69 ± 4 | 
O=C(O)c1cc(O)c2cccc(O)c2n1 [Xanthurenic acid] |  |  | % Inhibition (hair growth) (flank organ hair growth; [6]): 59 ± 4%; Hair Mass (mg) ± SEM, Treated (flank organ hair growth; [6]): 1.26 ± .13 mg
N#CC(=Cc1ccc(O)cc1)C(=O)O [α-Cyano-4-hydroxycinnamic acid] | 0.87 ± .34 mg | 49 ± 17 | 
